{"source": "paper PMC6207618", "about": "“The GbsR Family of Transcriptional Regulators: Functional Characterization of the OpuAR Repressor” (Frontiers in Microbiology, 2018)", "key": {"OpuAR": {"molecular_target": "OpuAR (Bacillus infantis, UniProt U5LJR5)", "sequence (U5LJR5 entry or part of it)": "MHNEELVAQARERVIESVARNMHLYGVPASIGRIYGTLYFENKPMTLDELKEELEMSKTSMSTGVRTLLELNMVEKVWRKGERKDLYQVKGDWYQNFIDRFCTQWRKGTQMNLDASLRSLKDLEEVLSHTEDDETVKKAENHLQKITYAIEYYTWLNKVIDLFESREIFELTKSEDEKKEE", "assay": "Intrinsic tryptophan fluorescence ligand binding, purified OpuAR (wild type)", "experimental": "Overproduction of the OpuAR repressor protein and its mutant derivatives was carried out in the E. coli B strain BL21 harboring plasmid pMP_AR1, a derivative of the expression vector pASK-IBA3plus (IBA, Göttingen, Germany) (Supplementary Table S3). […] De-repression of P-tet promoter activity is achieved by adding the synthetic inducer AHT to the growth medium. Cultures of the E. coli B. strain BL21 (pMP_AR1) were inoculated (to a OD578 of 0.1) from pre-cultures prepared in MMA ([Miller, 1972]) supplemented with 0.5% glucose (wt/vol) as the carbon source, 0.5% casamino acids (wt/vol), 1 mg l^-1 thiamine, and 1 mM MgSO4. The cultures also contained ampicillin (100 μg ml^-1) to select for the presence of plasmid pMP_AR1 (or its mutant derivatives) and they were grown at 37°C. When the main cultures reached an OD578 of 0.5, enhanced expression of the opuAR gene from P-tet was induced by the addition of AHT to a final concentration of 0.2-μg ml^-1. Cells were grown for an additional 2 h, before they were harvested by centrifugation (at 4°C at 4,800 × g for 20 min). […]\n(§1) The dissociation constants of OpuAR for choline and glycine betaine were determined by intrinsic tryptophan fluorescence spectroscopy as described previously using a Carry Eclips fluorescence spectrometer (Varian, Surry, United Kingdom) ([Pittelkow et al., 2011]; [Nau-Wagner et al., 2012])."}, "B. subtilis GbsR protein": {"molecular_target": "B. subtilis GbsR protein", "parameters": "method as in Nau-Wagner et al., 2012", "details": "purified B. subtilis GbsR, ref Nau-Wagner et al., 2012, cited from earlier work"}, "OpuAR R^100F": {"molecular_target": "OpuAR R^100F (Bacillus infantis, UniProt U5LJR5, R100F)", "sequence (U5LJR5 entry or part of it R100F)": "as the sequence (U5LJR5 entry or part of it) above", "assay": "biochemical", "type": "binding", "text": "(§2) The coding region of opuAR was amplified from chromosomal DNA of B. infantis NRRL B-14911 ([Massilamany et al., 2016]) using primers opuAR fwd and opuAR rev (Supplementary Table S2) harboring in their 5′-regions recognition sites for the restriction enzyme BsaI. The resulting PCR DNA fragment was then cut with BsaI and cloned into the expression vector pASK-IBA3plus (IBA, Göttingen, Germany) that had been linearized with BsaI; the obtained plasmids were named pMP_AR1 (Supplementary Table S3). Mutant derivatives of the opuAR gene were obtained using the Q5 Site-Directed Mutagenesis Kit (New England BioLabs, Ipswich, MA, United States) and a set of customized mutagenic primers (Supplementary Table S2). The Sanger sequencing method was used to verify the DNA sequence of the chromosomal insert of the parental opuAR^+ overexpression plasmid pMP_AR1 and of its derivatives carrying mutant opuAR genes. DNA sequencing was conducted by Microsynth (Lindau, Germany).\n(§3) Overproduction of the OpuAR repressor protein and its mutant derivatives was carried out in the E. coli B strain BL21 harboring plasmid pMP_AR1, a derivative of the expression vector pASK-IBA3plus (IBA, Göttingen, Germany) (Supplementary Table S3). […] De-repression of P-tet promoter activity is achieved by adding the synthetic inducer AHT to the growth medium. Cultures of the E. coli B. strain BL21 (pMP_AR1) were inoculated (to a OD578 of 0.1) from pre-cultures prepared in MMA ([Miller, 1972]) supplemented with 0.5% glucose (wt/vol) as the carbon source, 0.5% casamino acids (wt/vol), 1 mg l^-1 thiamine, and 1 mM MgSO4. The cultures also contained ampicillin (100 μg ml^-1) to select for the presence of plasmid pMP_AR1 (or its mutant derivatives) and they were grown at 37°C. When the main cultures reached an OD578 of 0.5, enhanced expression of the opuAR gene from P-tet was induced by the addition of AHT to a final concentration of 0.2-μg ml^-1. Cells were grown for an additional 2 h, before they were harvested by centrifugation (at 4°C at 4,800 × g for 20 min). The cell pellets were re-suspended in lysis buffer [100 mM Tris-HCl (pH 7.5), 2.5% glycerol, 2 mM dithiothreitol, 0.4 mM EDTA, 0.5 mM phenylmethylsulfonyl fluoride (PMSF), 0.5 mM benzamidine] and the cells were then disrupted by passing them through a French pressure cell as detailed previously ([Nau-Wagner et al., 2012]). Cleared cell lysates were prepared by ultra-centrifugation (at 4°C at 100,000 × g for 35 min) before the OpuAR-Strep-tag II recombinant protein was purified by affinity chromatography ([Nau-Wagner et al., 2012]) on streptactin affinity resin according to the manufacturers specifications (IBA, Göttingen, Germany). Mutant derivatives of the OpuAR protein were overproduced and purified as described above for the wild-type protein.\nas §1"}, "OpuAR W^93F": {"molecular_target": "OpuAR W^93F (Bacillus infantis, UniProt U5LJR5, W93F)", "sequence (U5LJR5 entry or part of it W93F)": "as the sequence (U5LJR5 entry or part of it) above", "assay": "biochemical", "type": "binding", "text": "as §2, §3, §1"}, "OpuAR Y^94F": {"molecular_target": "OpuAR Y^94F (Bacillus infantis, UniProt U5LJR5, Y94F)", "sequence (U5LJR5 entry or part of it Y94F)": "as the sequence (U5LJR5 entry or part of it) above", "assay": "biochemical", "type": "binding", "text": "as §2, §3, §1"}, "OpuAR N^96F": {"molecular_target": "OpuAR N^96F (Bacillus infantis, UniProt U5LJR5, N96F)", "sequence (U5LJR5 entry or part of it N96F)": "as the sequence (U5LJR5 entry or part of it) above", "assay": "biochemical", "type": "binding", "text": "as §2, §3, §1"}, "OpuAR Y^94F/R^100F": {"molecular_target": "OpuAR Y^94F/R^100F (Bacillus infantis, UniProt U5LJR5, R100F/Y94F)", "sequence (U5LJR5 entry or part of it Y94F/R100F)": "as the sequence (U5LJR5 entry or part of it) above", "assay": "biochemical", "type": "binding", "details": "for Improvement of binding (Kd) relative to wild-type OpuAR: OpuAR double variant Y94F/R100F vs wild type", "text": "as §2, §3, §1"}, "[1]": {"system": "opuAA-treA reporter activity", "assay": "opuAA-treA reporter fusion TreA enzyme activity assay", "type": "cell-based, Bacillus subtilis", "details": "strain STHB10, SMM with 1.2 M NaCl, dose-response 5 to 300 μM"}, "B. infantis NRRL B-14911": {"system": "B. infantis NRRL B-14911", "assay": "Growth of B. infantis with glycine betaine as sole carbon source", "type": "cell-based, Bacillus infantis", "details": "basal medium, 33.24 mM as sole carbon source, 46 h, 37°C", "experimental": "Supplementary Figure S7 │B. infantis cannot use glycine betaine as carbon source.\nCultures of B. infantis NRRL B-14911were grown in basal medium supplemented with either glucose (27.7 mM final concentration) or glycine betaine (33.24 mM final concentration) as the sole carbon source. Growth yields were measured after 46 hours of incubation at 37 °C.\nCultures without the addition of a carbon source served as control.\n(1 picture or pasted object on this page, not shown here)"}}, "note": "Read-outs that look alike come from different tables or passages of the source."}
{"smiles": "C[N+](C)(C)CCO", "note": "[choline]", "values": [{"measurement": "Kd", "setting": "OpuAR", "result": "193 ± 40", "unit": "µM"}, {"measurement": "Kd", "setting": "B. subtilis GbsR protein; intrinsic Trp-fluorescence", "result": "165 ± 15", "unit": "µM"}, {"measurement": "Kd", "setting": "OpuAR R^100F", "result": "100 ± 15", "unit": "µM"}, {"measurement": "Kd", "setting": "OpuAR W^93F", "result": "210 ± 33", "unit": "µM"}, {"measurement": "Kd", "setting": "OpuAR Y^94F", "result": "240 ± 33", "unit": "µM"}, {"measurement": "Kd", "setting": "OpuAR N^96F", "result": "262 ± 34", "unit": "µM"}, {"measurement": "Kd", "setting": "OpuAR Y^94F/R^100F", "result": "61 ± 11", "unit": "µM"}, {"measurement": "Improvement of binding (Kd) relative to wild-type OpuAR", "setting": "OpuAR Y^94F/R^100F", "result": "about threefold"}]}
{"smiles": "C[N+](C)(C)CC(=O)[O-]", "note": "[glycine betaine]", "values": [{"measurement": "Kd", "setting": "OpuAR; purified OpuAR-Strep-tag II wild type, 5 μM protein, read-out: Kd", "result": "301 ± 24", "unit": "µM"}, {"measurement": "Binding by GbsR", "setting": "B. subtilis GbsR protein", "result": "does not bind"}, {"measurement": "Kd", "setting": "OpuAR R^100F; OpuAR variant R100F, read-out: Kd", "result": "303 ± 40", "unit": "µM"}, {"measurement": "Kd", "setting": "OpuAR W^93F; OpuAR variant W93F, read-out: Kd", "result": "224 ± 24", "unit": "µM"}, {"measurement": "Kd", "setting": "OpuAR Y^94F; OpuAR variant Y94F, read-out: Kd", "result": "293 ± 37", "unit": "µM"}, {"measurement": "Kd", "setting": "OpuAR N^96F; OpuAR variant N96F, read-out: Kd", "result": "254 ± 39", "unit": "µM"}, {"measurement": "Improvement of binding (Kd) relative to wild-type OpuAR", "setting": "OpuAR Y^94F/R^100F", "result": "fourfold"}, {"measurement": "Kd", "setting": "OpuAR Y^94F/R^100F; OpuAR double variant Y94F/R100F, read-out: Kd", "result": "70 ± 12", "unit": "µM"}, {"measurement": "Concentration in growth medium triggering a noticeable increase in transcriptional activity", "setting": "[1]", "result": 5, "unit": "µM"}, {"measurement": "Concentration sufficient to fully induce expression of the reporter fusion", "setting": "[1]", "result": 75, "unit": "µM"}, {"measurement": "Use as carbon source / nutrient (growth yield)", "setting": "B. infantis NRRL B-14911", "result": "cannot use"}]}
